From US7132418B2, “Peptidyl heterocyclic ketones useful as tryptase inhibitors” (Ortho-McNeil Pharmaceutical, Inc., priority 1999, dated 2006)

Assays:
[1] = compared with placebo, 16 mild asthmatics, nebulized dry powder formulation; cited from earlier work
Bovine type 1 trypsin = biological target: T1, Bovine type 1 trypsin (Bos taurus, UniProt P00760); assay: Trypsin IC50 method, chromogenic substrate hydrolysis; type: biochemical; settings: 3.2 U/ml bovine type 1 trypsin, 1.0 mM Spectrozyme TRY
T1 construct: purchased Sigma
T1 sequence (P00760 24-246): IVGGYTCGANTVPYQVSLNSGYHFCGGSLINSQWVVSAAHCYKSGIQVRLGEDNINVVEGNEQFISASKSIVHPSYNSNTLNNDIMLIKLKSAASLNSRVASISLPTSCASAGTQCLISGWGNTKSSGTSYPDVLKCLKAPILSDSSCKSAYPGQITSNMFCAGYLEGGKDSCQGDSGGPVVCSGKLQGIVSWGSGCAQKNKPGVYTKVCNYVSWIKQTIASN
Method: (§1) The enzyme reaction is started by the addition of enzyme ([E]: 1.0 nM human Lung Tryptase; Cortex Biochem CP3033). Data is collected over a period of 30 min. and the initial rate of substrate hydrolysis (Vo (mOD/min)) is calculated. Inhibition is calculated by comparing to wells containing no inhibitor (vehicle) and IC50s are determined using a four parameter fit logistics model. • Trypsin IC50 Method: Inhibition of trypsin-catalyzed hydrolysis rates were measured using the same method as the tryptase procedure. Bovine type 1 trypsin (Sigma) and Spectrozyme® TRY (Cbo-Gly-D-Ala-Arg-pNA.AcOH, American Diagnostics) replaced their tryptase equivalents at concentrations of 3.2 U/ml trypsin and 1.0 mM Spectrozyme® TRY.

human Lung Tryptase = biological target: T2, human Lung Tryptase; assay: Tryptase IC50 method, chromogenic substrate hydrolysis; type: biochemical; settings: 1.0 nM human lung tryptase, 500 μM N-p-Tosyl-GLY-PRO-LYS-pNA, 37° C.
T2 construct: 1.0 nM human Lung Tryptase
Method: as §1

trypsin = settings: pancreatic agents, comparison values; cited from earlier work

SMILES | improvement for the late airway response [1] [%] | mean maximum decrease of forced expiratory volume in one second for late airway hyperresponsiveness [1] [%] | IC50 (Bovine type 1 trypsin) [nM] | IC50 (human Lung Tryptase) [nM] | IC50 (trypsin) [nM]
NC(=O)[C@@H]1CCCN1C(=O)[C@H](CCCN=C(N)N)NC(=O)c1ccc2ccccc2c1O [APC-366] | 33 | 21 | – | – | –
CC(=O)N[C@H]1CCC[C@H]1C(=O)NC(CCCNC(=N)N)C(=O)c1nc2ccccc2s1 (stereo partly drawn) [Compound 3, cis-2-Acetylamino-N-[(1S)-4-[(aminoiminomethyl)amino]-1-(2-benzothiazolylcarbonyl)butyl]-1-cyclopentanecarboxamide] | – | – | 360 ± 30 | 1700 ± 700 | –
CS(=O)(=O)N1C[C@H](O)C[C@H]1C(=O)NC(CCCNC(=N)N)C(=O)c1nc2ccccc2s1 (stereo partly drawn) [Compound 5, (2S,4R)-N-[4-[(aminoiminomethyl)amino]-1-(2-benzothiazolylcarbonyl)butyl]-4-hydroxy-1-methanesulfonyl-2-pyrrolidinecarboxamide] | – | – | 210 | 100 ± 10 | –
CS(=O)(=O)N1CCC[C@H]1C(=O)NC(CCCNC(=N)N)C(=O)c1nc2ccccc2s1 (stereo partly drawn) [Compound 6, (2S)-N-[4-[(aminoiminomethyl)amino]-1-(2-benzothiazolylcarbonyl)butyl]-1-methanesulfonyl-2-pyrrolidinecarboxamide] | – | – | 110 | 140 ± 80 | –
Cc1ccc(S(=O)(=O)N2CCC[C@H]2C(=O)NC(CCCNC(=N)N)C(=O)c2nc3ccccc3s2)cc1 (stereo partly drawn) [Compound 7, (2S)-N-[4-[(Aminoiminomethyl)amino]-1-(2-benzothiazolylcarbonyl)butyl]-1-[(4-methylphenyl)sulfonyl]-2-pyrrolidinecarboxamide] | – | – | 230 ± 110 | 1400 ± 800 | –
CC(=O)N1C[C@H]2C[C@H]2C1C(=O)NC(CCCNC(=N)N)C(=O)c1nc2ccccc2s1 (stereo partly drawn) [Compound 8, (2S)-trans-3-Acetyl-N-[4-[(aminoiminomethyl)amino]-1-(2-benzothiazolylcarbonyl)butyl]-3-azabicyclo(3.1.0)hexane-2-carboxamide] | – | – | 190 | 110 ± 40 | –
COC(=O)N1CCC[C@H]1C(=O)NC(CCCNC(=N)N)C(=O)c1nc2ccccc2s1 (stereo partly drawn) [Compound 11, (2S)-N-[4-[(Aminoiminomethyl)amino]-1-(2-benzothiazolylcarbonyl)butyl]-1,2-pyrrolidinedicarboxamide, 1-methyl ester] | – | – | 39 | 2400 ± 900 | –
N=C(N)NCCCC(NC(=O)C1CCCCC1C(N)=O)C(=O)c1nc2ccccc2s1 (stereo not drawn) [Compound 16, N-[4-[(Aminoiminomethyl)amino]-1-(2-benzothiazolylcarbonyl)butyl]-1,2-cyclohexanedicarboxamide] | – | – | 160 | 180 ± 70 | –
CC(=O)NC1CCC(C(=O)NC(CCCNC(=N)N)C(=O)c2nc3ccccc3s2)CC1 (stereo not drawn) [Compound 17, 4-Acetamido-N-[4-[(aminoiminomethyl)amino]-1-(2-benzothiazolylcarbonyl)butyl]-cyclohexanecarboxamide] | – | – | 2400 | 9400 ± 5700 | –
CC(=O)N[C@H]1CCCN(CC(=O)NC(CCCNC(=N)N)C(=O)c2nc3ccccc3s2)C1=O (stereo partly drawn) [Compound 19, (S)-3-Acetamido-N-[4-[(aminoiminomethyl)amino]-1-(2-benzothiazolylcarbonyl)butyl]-2oxo-1-piperidineacetamide] | – | – | 320 | 12000 ± 5000 | –
N=C(N)NCCCC(NC(=O)CCC(N)=O)C(=O)c1nc2ccccc2s1 (stereo not drawn) [Compound 23, N-[4-[(Aminoiminomethyl)amino]-1-(2-benzothiazolylcarbonyl)butyl]butanediamide] | – | – | 93 ± 68 | 260 ± 10 | –
CCCC(CCC)C(=O)N[C@@H](CC(=O)OC)C(=O)N1CCC[C@H]1C(=O)N[C@@H](CCCNC(=N)N)C(=O)c1nc2ccccc2s1 [Compound 26, N-(1-Oxo-2-propylpentyl)-L-α-aspartyl-N-[4-[(aminoiminomethyl)amino]-1-(2-benzothiazolylcarbonyl)butyl]-L-prolinamide, methyl ester] | – | – | 48 ± 1 | 110 ± 10 | –
N=C(N)NCCC[C@H](NC(=O)[C@@H]1CCCN1C(=O)[C@@H](CC1CCCCC1)NCC(=O)O)C(=O)c1nc2ccccc2s1 [Compound 27, N-(Carboxymethyl)-3-cyclohexyl-D-alanyl-N-[(1S)-4-[(aminoiminomethyl)amino]-1-(2-benzothiazolylcarbonyl)butyl]-L-prolinamide] | – | – | 36 ± 1 | 34 ± 3 | –
N=C(N)NCCC[C@H](NC(=O)CN1CCCC[C@H](NS(=O)(=O)Cc2ccccc2)C1=O)C(=O)c1nc2ccccc2s1 [Compound 28, (3S)N-[(1S)-4-[(Aminoiminomethyl)amino]-1-(2-benzothiazolylcarbonyl)butyl]hexahydro-2-oxo-3-[[(phenylmethyl)sulfonyl]amino]-1H-azepine-1-acetamide] | – | – | 42 ± 1 | 100 ± 40 | –
N=C(N)NCCC[C@H](NC(=O)[C@@H]1CCCN1C(=O)[C@H](CO)NS(=O)(=O)c1cccc2ccccc12)C(=O)c1nc2ccccc2s1 [Compound 29] | – | – | 58 ± 12 | 14 ± 5 | –
CN[C@H](Cc1ccccc1)C(=O)N1CCC[C@H]1C(=O)N[C@@H](CC1CCCN(C(=N)N)C1)C(=O)c1nc2ccccc2s1 (stereo partly drawn) [Compound 30, N-Methyl-D-phenylalanyl-N-[(2S)-[1-(aminoiminomethyl)-3-piperidinyl]-1-(2-benzothiazolylcarbonyl)ethyl]-L-prolinamide] | – | – | 110 ± 70 | 36 ± 4 | –
CN[C@H](Cc1ccccc1)C(=O)N1CCC[C@H]1C(=O)N[C@@H](Cc1cccc(C(=N)N)c1)C(=O)c1nc2ccccc2s1 [Compound 31, (S)—N-methyl-D-phenylalanyl-N-[1-[[3-(aminoiminomethyl)phenyl]methyl]-2-(2-benzothiazolyl)-2-oxoethyl]-L-prolinamide] | – | – | 240 | 290 ± 30 | –
CC(=O)N[C@@H](CC1CCCCC1)C(=O)NC(CCCNC(=N)N)C(=O)c1nc2ccccc2s1 (stereo partly drawn) [Compound 32] | – | – | 17 | 440 | –
CC(=O)N[C@H](C(=O)NC(CCCNC(=N)N)C(=O)c1nc2ccccc2s1)C(C)C (stereo partly drawn) [Compound 33] | – | – | 19 | 180 ± 10 | –
N=C(N)NCCCC(NC(=O)[C@@H]1CCCN1C(=O)c1ccccc1)C(=O)c1nc2ccccc2s1 (stereo partly drawn) [Compound 34] | – | – | 46 | 340 | –
CN(C)C(=O)COC(=O)Cc1ccc(OC(=O)c2ccc(NC(=N)N)cc2)cc1 [camostat mesilate] | – | – | – | – | 10
N=C(N)c1ccc2cc(OC(=O)c3ccc(N=C(N)N)cc3)ccc2c1 [nafamostat] | – | – | – | – | 13
